≈ marks a conversion by molar mass, not a printed value. Results filed as inconclusive are left out. Calls of active or inactive are those of the source. No rule for the calls is given here.
Test system: M. tuberculosis H37Rv growth inhibition
Test: Confirmatory growth inhibition assay against Mycobacterium tuberculosis H37Rv, potency (AID 1949);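 also: bacteria grown 7 days with compound before Alamar blue readout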

SMILES | IC50
O=C(Nc1ccc(Oc2ccccc2)cc1)Nc1cccc([N+](=O)[O-])c1 | 1.09 µg/mL (≈ 3.12 µM)
O=c1c2ccccc2[nH]c(=S)n1CCCN1CCN(c2cccc(Cl)c2)CC1 | 2.46 µg/mL (≈ 5.93 µM)
COc1ccc2nc(C)c3cc(C)oc3c2c1 | 1.82 µg/mL (≈ 8.01 µM)
COc1ccccc1NC(=O)CSc1nc(-c2ccccc2)cc(C(F)(F)F)c1C#N | 1.63 µg/mL (≈ 3.68 µM)
CC(C)OC(=O)c1c2c(n3ccccc13)C(=O)c1ccccc1C2=O | 11.4 µg/mL (≈ 34.2 µM)
O=C(Nc1ccc(-c2nc3ccccc3c(=O)o2)cc1)C(c1ccccc1)c1ccccc1 | > 50 µg/mL (inactive)
CC(C)Cc1nc2sc3c(c2c(=O)o1)CCCCC3 | 5.69 µg/mL (≈ 20.5 µM)
CCOC(=O)COc1c(Cl)cc(/C=C(/C#N)c2nc3ccc(OC)cc3[nH]2)cc1Cl | 0.2 µg/mL (≈ 0.448 µM)
c1ccc(-n2nnnc2Oc2cccc3cccnc23)cc1 | 5.68 µg/mL (≈ 19.6 µM)
COc1cc(NC(=O)c2ccc3c(c2)OCCO3)ccc1NC(=O)c1ccccc1Cl | 0.66 µg/mL (≈ 1.5 µM)
O=C(Nc1cccc2ncccc12)c1ccc([N+](=O)[O-])o1 | 4.28 µg/mL (≈ 15.1 µM)
Cc1ccc2c(c1)c(-c1ccccc1)c(-c1ccccc1)n2CC(O)CN1CCN(CCO)CC1 (stereo not drawn) | 1.84 µg/mL (≈ 3.92 µM)
O=C(NC1CCCCC1)c1cc2cc(Cl)cc(Cl)c2oc1=O | > 50 µg/mL (inactive)
O=[N+]([O-])c1cccc(NC(=S)Nc2ccc(Cl)c(C(F)(F)F)c2)c1 | 2.62 µg/mL (≈ 6.97 µM)
CCOC(=O)COc1ccc2c3c(c(=O)oc2c1C)CCC3 | > 50 µg/mL (inactive)
COc1cc2c(cc1OC)C(c1ccc(-c3ccc(Cl)c(Cl)c3)o1)=NCC2 | 6.98 µg/mL (≈ 17.4 µM)
Cc1cccc(N2CCN(C3=NC(=O)C(=C4CCCCC4)S3)CC2)c1 | 0.78 µg/mL (≈ 2.19 µM)
O=C(Oc1ccc(C2CCCCC2)cc1)c1cccs1 | 13.3 µg/mL (≈ 46.4 µM)
Cc1cc(C)c(OCCCCNCc2ccccc2)c(Cl)c1 | 5.18 µg/mL (≈ 16.3 µM)
CCN(CC)c1cccc(Oc2nc([N+](=O)[O-])nn2C)c1 | 1.81 µg/mL (≈ 6.21 µM)
COc1ccc(Nc2cc(C)nc3c2ccc2ccccc23)cc1 | 1.62 µg/mL (≈ 5.15 µM)
COCc1nc2ccccc2n1CCCOc1ccc(C)cc1 | 8.25 µg/mL (≈ 26.6 µM)
CCOC(=O)c1ccc(NC(=O)CSc2nnc(-c3ccc(OC)cc3)o2)cc1 | 0.17 µg/mL (≈ 0.411 µM)
CCc1ccc(C(=O)NC(=S)Nc2ccc(Cc3ccncc3)cc2)cc1 | 10.9 µg/mL (≈ 29.1 µM)

SMILES | IC50
CCN(CC)c1ncnc2c1sc1nc(C)cc(C)c12 | > 50 µg/mL (inactive)
NC(=O)COc1ccc(C23CC4CC(CC(C4)C2)C3)cc1 | 19.7 µg/mL (≈ 69.2 µM)
O=C(Nc1ccc(Cl)c(C(F)(F)F)c1)c1ccc2c(c1)OCO2 | > 50 µg/mL (inactive)
O=S(=O)(Nc1cccc2cccnc12)c1ccc(Br)cc1 | 0.4 µg/mL (≈ 1.1 µM)
CC(C)C1C(c2ccccc2)NC(c2ccccc2)CC1(O)C#Cc1ccccc1 (stereo not drawn) | 9.22 µg/mL (≈ 23.3 µM)
Cc1ccc(N2CC(C(=O)Nc3ncc([N+](=O)[O-])s3)CC2=O)cc1 (stereo not drawn) | 28.3 µg/mL (≈ 81.6 µM)
Cn1c(=O)c([N+](=O)[O-])c(Nc2cccc(C(F)(F)F)c2)c2ccccc21 | 15.4 µg/mL (≈ 42.3 µM)
CCOc1ccc(NC(=O)COc2ccc(SC)cc2)cc1 | < 0.1 µg/mL
Clc1cc(Br)ccc1OCCCCn1ccnc1 | 1.11 µg/mL (≈ 3.37 µM)
CCOc1ccc(Nc2nc(-c3sc(C)nc3C)cs2)cc1 | 3.38 µg/mL (≈ 10.2 µM)
COC(=O)C(C)Oc1ccc2c(=O)c(Oc3ccc(OC)cc3)coc2c1 (stereo not drawn) | 5.99 µg/mL (≈ 16.2 µM)
Cc1cc(OCC(O)CN2CCN(c3ccc(F)cc3)CC2)ccc1C(C)C (stereo not drawn) | 11.7 µg/mL (≈ 30.2 µM)
Cc1ccc2cccc(OCC(=O)c3ccc(C)c(C)c3)c2n1 | 11.3 µg/mL (≈ 37.2 µM)
CCOC(=O)c1sc(NC(=O)NC2CCCCC2)cc1C | 0.75 µg/mL (≈ 2.42 µM)
Cc1ccc(Cn2cnc3sc4c(c3c2=O)CCCC4)cc1 | 8.41 µg/mL (≈ 27.1 µM)
O=C(/C=C\c1ccccc1)Nc1cccc(-c2nc3ccccc3[nH]2)c1 | 7.66 µg/mL (≈ 22.6 µM)
Cc1ccc2cccc(OCCOc3ccccc3C(C)C)c2n1 | 4.02 µg/mL (≈ 12.5 µM)
CC(=O)c1c(C)nc(-c2ccc(Cl)c(Cl)c2)n1O | 17.4 µg/mL (≈ 60.9 µM)
Cc1ccccc1NC(=O)c1cc(Cl)ccc1O | 2.6 µg/mL (≈ 9.93 µM)
COc1ccc(OCCC(=O)Nc2nc(C3CCCCC3)cs2)cc1 | 25.5 µg/mL (≈ 70.8 µM)
CC(C)(C)NCCCOc1ccc(Cl)cc1C(C)(C)C | 23.3 µg/mL (≈ 78.2 µM)
O=C1N(Cc2ccccc2Cl)c2ccc(Br)cc2C1(O)c1c[nH]c2ccccc12 (stereo not drawn) | 1.68 µg/mL (≈ 3.59 µM)
N#CC1=C(SCC(=O)Nc2ccccc2C(=O)c2ccccc2)NC(=O)CC1c1ccccc1F (stereo not drawn) | 3.1 µg/mL (≈ 6.38 µM)
COc1cccc(OCCN2CCN(c3ncnc4sc5c(c34)CCCC5)CC2)c1 | 29 µg/mL (≈ 68.2 µM)

SMILES | IC50
CN(C)C(=O)CSc1cccc2cccnc12 | 6.25 µg/mL (≈ 25.4 µM)
O=C(c1ccc(NC(=O)C2(c3ccccc3)CCCC2)cc1)N1CCCCC1 | 1.24 µg/mL (≈ 3.29 µM)
CN(C)C(=S)Nc1nc2ccccc2s1 | < 0.1 µg/mL
CC(C)(C)c1cc(Cl)c(O)c(NC(=S)NC(=O)c2ccc(Cl)cc2)c1 | < 0.1 µg/mL
CCOC(=O)Cc1ccc2c(=O)c(Oc3ccc(F)cc3)coc2c1 | 33 µg/mL (≈ 96.3 µM)
CCOC(=O)c1cnc2ccc(OC)cc2c1Nc1ccc2c(c1)OCCO2 | 2.9 µg/mL (≈ 7.62 µM)
CCOC(=O)c1c(NC(=O)COc2ccccc2C)sc(C(=O)N2CCCC2)c1C | > 50 µg/mL (inactive)
C/C(=N/N=C1\NC(=O)C(Cc2ccc(Cl)cc2)S1)c1ccc(F)cc1 (stereo not drawn) | 19 µg/mL (≈ 50.6 µM)
NC(=O)c1c(NC(=O)c2c(F)c(F)c(F)c(F)c2F)sc2c1CCC2 | 2.77 µg/mL (≈ 7.36 µM)
CNCc1ccc(OCc2ccc(Cl)cc2Cl)cc1 | 4.85 µg/mL (≈ 16.4 µM)
O=C(CSc1n[nH]c(-c2ccc(Cl)cc2)n1)Nc1ccccc1Cl | 4.21 µg/mL (≈ 11.1 µM)
COc1cc2ccccc2cc1C(=O)NCCC12CC3CC(CC(C3)C1)C2 | 3.27 µg/mL (≈ 9 µM)
COc1ccccc1Nc1nc(NCc2ccccc2)c2ccccc2n1 | 3.21 µg/mL (≈ 9.01 µM)
COc1cc(Br)cc2cc(C(=O)Nc3ccccc3C(F)(F)F)c(=O)oc12 | > 50 µg/mL (inactive)
Cc1cc(OCC(=O)NC2C3CC4CC(C3)CC2C4)cc(C)c1Br (stereo not drawn) | 1.45 µg/mL (≈ 3.7 µM)
CCCc1ccc(OCC(=O)Nc2ccc(F)cc2)cc1 | 0.85 µg/mL (≈ 2.96 µM)
O=C(NCCc1c[nH]c2ccccc12)Nc1ccc(Cl)c(Cl)c1 | 3.69 µg/mL (≈ 10.6 µM)
Cc1cc(C)cc(OCC(=O)c2ccc(Br)cc2)c1 | 6.8 µg/mL (≈ 21.3 µM)
COc1ccc(-c2csc3ncn(C(C)C(=O)OC4CCCCC4)c(=O)c23)cc1 (stereo not drawn) | 10.9 µg/mL (≈ 26.5 µM)
O=C1c2ccccc2C2=Nc3cc(Cl)ccc3OC12O (stereo not drawn) | 5.5 µg/mL (≈ 19.3 µM)
Cc1ccc(-c2cnc(C)c(-c3ccccc3)c2)nc1-c1ccccc1 | > 50 µg/mL (inactive)
O=C(CSc1ccccc1)Nc1ccc(-c2nc3ccccc3c(=O)o2)cc1 | 0.47 µg/mL (≈ 1.21 µM)
O=c1c2ccccc2nc(/C=C/c2ccc([N+](=O)[O-])o2)n1CCCO | < 0.1 µg/mL
COc1ccc(OCC(=O)Nc2cccc(-c3nc4ccccc4c(=O)o3)c2)cc1 | 37.1 µg/mL (≈ 92.2 µM)

SMILES | IC50
COC(=O)COc1ccc(NC(=O)COc2ccc(C(C)(C)C)cc2)cc1 | 0.17 µg/mL (≈ 0.458 µM)
N#Cc1cccc(NC(=O)Nc2cccc(Cl)c2)c1 | 6.26 µg/mL (≈ 23 µM)
O=C(Nc1nccs1)c1cn(-c2ccccc2)nc1-c1ccco1 | > 50 µg/mL (inactive)
CC(NCc1cccc(OCc2ccccc2)c1)C(O)c1ccccc1 (stereo not drawn) | 5.53 µg/mL (≈ 15.9 µM)
CC(NC(=O)Nc1cccc(C(F)(F)F)c1)C1CC2CCC1C2 (stereo not drawn) | < 0.1 µg/mL
O=C(CSc1ccc(Br)cc1)Nc1cccc(Cl)c1 | 1.51 µg/mL (≈ 4.23 µM)
CC(=O)Oc1c(C(=O)c2ccccc2)sc2ccccc12 | 0.71 µg/mL (≈ 2.4 µM)
O=C(Nc1nc2c(Cl)cccc2s1)c1ccc([N+](=O)[O-])o1 | 1.58 µg/mL (≈ 4.88 µM)
O=C(COc1cccc(Cl)c1)Nc1ccc(F)c(Cl)c1 | 5.7 µg/mL (≈ 18.1 µM)
Cc1oc2ccc(OCC(=O)OCc3ccccc3)cc2c1C(=O)OC(C)C | 9.08 µg/mL (≈ 23.7 µM)
CCC(C)NCCOc1ccc(C(C)(C)c2ccccc2)cc1 (stereo not drawn) | 0.91 µg/mL (≈ 2.92 µM)
COC(=O)CSc1nnc(-c2ccc(Cl)cc2)o1 | < 0.1 µg/mL
O=C(O)c1ccc(NC(=S)NC(=O)c2ccc(-c3ccccc3)cc2)cc1 | 1.58 µg/mL (≈ 4.2 µM)
N#Cc1ccc(-c2nc(-c3ccccc3)c(-c3cccs3)[nH]2)cc1 | 5.89 µg/mL (≈ 18 µM)
O=C(Nc1nc2c(Cl)c(Cl)ccc2s1)c1ccco1 | 4.83 µg/mL (≈ 15.4 µM)
Cc1ccc(Cl)cc1N1CCN(CC(O)COc2ccc(Cl)cc2)CC1 (stereo not drawn) | 4.57 µg/mL (≈ 11.6 µM)
Cc1c(NC(=O)Nc2cccc(C(F)(F)F)c2)cccc1[N+](=O)[O-] | 2.93 µg/mL (≈ 8.64 µM)
CCC(=O)Oc1cccc2ccc(/C=C/c3ccc4c(c3)OCO4)nc12 | 0.17 µg/mL (≈ 0.489 µM)
CCCCn1c(NC(=S)Nc2ccccc2)nc2ccccc21 | 4.83 µg/mL (≈ 14.9 µM)
CCC(C)NC(=O)c1ccc(NC(=O)C2(c3ccccc3)CCCC2)cc1 (stereo not drawn) | 1.08 µg/mL (≈ 2.96 µM)
COC(=O)COc1cccc(NC(=O)c2cccc(C)c2)c1 | 2.85 µg/mL (≈ 9.52 µM)
Cc1ccc(-c2csc3ncn(C(C)C(=O)OCc4ccccc4Cl)c(=O)c23)cc1 (stereo not drawn) | 0.74 µg/mL (≈ 1.69 µM)
CCN1CCN(c2ccc(NC(=O)c3cc(Br)cc(C)c3OC)cc2Cl)CC1 | 4.8 µg/mL (≈ 10.3 µM)
CCn1c(NCc2c(O)ccc3ccccc23)nc2ccccc21 | 2.05 µg/mL (≈ 6.46 µM)

SMILES | IC50
O=C(CCN1CCC(c2ccccc2)C1)c1cccs1 (stereo not drawn) | 11.5 µg/mL (≈ 40.2 µM)
CCOC(=O)COc1ccc2c(=O)c(-c3ccc(OC)cc3)c(C)oc2c1 | 1.29 µg/mL (≈ 3.5 µM)
Cc1ccc(-n2cnc3cc(NCc4cccs4)ccc32)cc1 | 2.87 µg/mL (≈ 8.98 µM)
Cc1cc(OCCCN2CCCC(C)C2)cc(C(C)C)c1 (stereo not drawn) | 5.85 µg/mL (≈ 20.2 µM)
CCOC(=O)c1ccc(NC(=O)CC2C(=O)N(Cc3ccccc3)C(=S)N2Cc2cccnc2)cc1 (stereo not drawn) | 6.04 µg/mL (≈ 12 µM)
COC(=O)c1c(C)cc(=O)n2c1[nH]c1ccccc12 | 3.52 µg/mL (≈ 13.7 µM)
CCC(=O)Oc1cccc2ccc(/C=C/c3ccccc3F)nc12 | < 0.1 µg/mL
CCc1ccc(OCC(=O)Nc2ccc(N3CCN(C(=O)c4cccs4)CC3)c(Cl)c2)cc1 | 2.95 µg/mL (≈ 6.09 µM)
Cc1cc(NC(=O)CSc2nnnn2-c2ccccc2C)no1 | 1.41 µg/mL (≈ 4.27 µM)
COc1cccc(NC(=O)Nc2ccc(C(F)(F)F)cc2)c1 | 5.23 µg/mL (≈ 16.9 µM)
Cc1cc(O)ccc1Nc1nc(-c2ccccn2)cs1 | 1.42 µg/mL (≈ 5.01 µM)
COC(=O)c1c(C)oc2ccc(OC(=O)c3cccc([N+](=O)[O-])c3)cc12 | 3.65 µg/mL (≈ 10.3 µM)
COC(=O)C1=C(C)N(c2ccc(F)c(Cl)c2)C(=O)C1 | 13.5 µg/mL (≈ 47.4 µM)
COc1ccccc1OC(=O)c1sc2ccccc2c1Cl | 1.37 µg/mL (≈ 4.3 µM)
Cc1cc(C)c(N2CCN(S(=O)(=O)c3ccc(Cl)cc3)CC2)c(C)c1 | > 50 µg/mL (inactive)
O=C(/C=C/c1cccs1)N1CCN(Cc2ccc3c(c2)OCO3)CC1 | < 0.1 µg/mL
NC(=O)CSc1nnc(SCc2ccc(Cl)cc2)s1 | 5.19 µg/mL (≈ 15.6 µM)
CC(C)(C)NC(=O)c1cc2cc(Cl)cc(Cl)c2oc1=O | 2.54 µg/mL (≈ 8.08 µM)
CC(C)(C)c1ccc(-c2nn3c(Cc4ccccc4)nnc3s2)cc1 | > 50 µg/mL (inactive)
Cc1cc(Br)c2[nH]c(O)c(N=NC(=O)COc3ccccc3C)c2c1 | 18.7 µg/mL (≈ 46.4 µM)
CC(=O)c1ccc(NC(=S)Nc2ccc(Br)c(Cl)c2)cc1 | 2.14 µg/mL (≈ 5.58 µM)
O=C(Nc1ccc2oc(-c3cccc4ccccc34)nc2c1)c1cncc(Br)c1 | 2.72 µg/mL (≈ 6.12 µM)
